Experimental findings from US20230374460A1, “Methods for Cardiac Differentiation of Human Induced Pluripotent Stem Cells” (The Trustees of Columbia University in the City of New York, priority 2015, published 2023) are described below.

Molecules are shown by their SMILES.

One test relates to human iPSC lines. Briefly: Monolayer cardiac differentiation of iPSCs into beating cardiomyocytes (serum-containing protocol, optimisation of GSK3 inhibitor dose and oxygen level). The class given is cell-based. Particulars: single use, 20% O2. An excerpt:
CHIR99021 (GSK3 inhibitor, #1386, Lot #6 & #7, Axon MedChem) and BIO (GSK3 inhibitor IX, #361550, Lot #D00148116, Calbiochem) (Minami et al., Cell reports 2, 1448-1460(2012)), IWP-3 (Wnt inhibitor, #SML0533, Lot #102m4613V, Sigma-Aldrich) resolved in Dimethyl Sulfoxide (DMSO, #276855, Sigma-Aldrich) were used for monolayer differentiation of iPSCs plated on Geltrex in 6-well plate or 10 cm dish. To prepare differentiating culture media, only one freeze and thaw cycle was confirmed for all aliquots of small compounds CHIR99021 and BIO and recombinant human growth factors. Twice freeze and thaw cycle was confirmed for IWP-3 aliquots. For the differentiation protocol with serum-containing media, DF20/5 media was used for cardiac differentiation and culture: DMEM/F-12 (with GlutaMax I) containing 20% or 5% Hyclone FBS, 1% non-essential amino acid, P.S. and 0.1 mM bME. Additional D-glucose was added to only DF20 as high glucose media (final 4.5 g/l) to enhance mesoderm differentiation from Day 1 to Day 4. For BIO and CHIR treatment, media was changed everyday. For IWP-3 treatment, media was changed every other day. DF5 media was used for the maintenance of cardiomyocytes after differentiation (Day 11˜) and media was changed every other day. Changed media using DF20 with small compounds required ˜3 ml per well in 6-well and ˜15 ml per 10 cm dish every other day since adding 2-2.5 ml of fresh media to a well of 6-well plates was not sufficient for high confluence of cells during differentiation into cardiomyocytes, resulting in lower efficiency of cardiac differentiation. […] For the differentiation protocol without serum containing media, Iscove's Modified Dulbecco Media (IMDM, Sigma-Aldrich) with B27 supplement (-minus insulin version, Life Technologies) was used for mesoderm differentiation (Day 1 to Day 3) and IMDM media with B27 (regular version, Life Technologies) was used for further differentiation and maintenance (Day 4˜). […] For the comparison between different serum free monolayer cardiac differentiation protocols (FIG. 3), RPMI1640 media (Sigma-Aldrich) and Activin A and BMP4 (R & D Systems), B27 supplement (both regular & minus insulin version, Life Technologies), human albumin (Sigma) and L-ascorbic acid 2-phosphate (Sigma-Aldrich) were used to make the corresponding differentiation media. In case of using DMEM/F-12 media for serum-free protocol, all cells died during early stage of cardiac differentiation (data not shown). All images and movies were taken in the tissue culture room using TS100F-LED microscope operated by Nikon NIS-Elements with objectives (4×, CFI Plan Fluor DL, NA 0.13; 10×, CFI Achromat ADL, NA0.25; 20×, CFI Achromat LWD ADL, NA 0.4, Nikon). Antibodies to sarcomeric alpha-actinin (clone #EA-53, Sigma-Aldrich) were used for immunocytochemistry of human cardiomyocytes (3-4 weeks later after cardiac differentiation). The cell size was analyzed blindly by E. Uche-Anya using Fiji software (FIG. 6). FACS analyses were performed in Columbia Center for Translational Immunology (CCTI) using a BD FACS Calibur using control and patient cardiomyocytes at day 19. Standard protocol for FACS was used first with 0.5% saponin (Sigma-Aldrich) for permeabilization at blocking step and next with sarcomeric alpha-actinin antibody (Sigma-Aldrich, clone #EA-53, 1/200 dilution) or cardiac troponin T (clone #13-11, Thermo Scientific, 1/500 dilution) and goat anti-mouse Alexa Fluor 488 secondary antibody (Life Technologies, 1/500) in FACS buffer (0.1% saponin, 2% FBS and 2 mM EDTA in Hanks buffer in HEPES, HBSS). The FACS data analyses were blindly performed by J. Feng. The identical cell samples were also used before fixation, for RNA/cDNA preparation and gene expression profiling using qPCR. Dimethyl Sulfoxide (DMSO) quality is critical to get reproducible results using small compounds, especially CHIR99021 (CHIR, #1386, lot #6 & #7, Axon MedChem). DMSO should be kept from ambient air. […]

A further test relates to LQTS cardiomyocytes. Briefly: Dual optical recording of action potentials (ArcLight) and calcium handling (R-GECO1) in LQTS (Timothy syndrome) iPSC-derived cardiomyocytes. The class given is cell-based, human. Here is the method:
Plasmids of R-GECO1 (Addgene #32462) (Zhao et al., 2011) and ArcLight (Addgene #36857) (Jin et al., 2012) were used as template to amplify the cDNA using Phusion polymerase (Thermo Scientific) with primer sets that allowed us to add restriction enzyme site EcoRI and Kozak sequence before the start codon (without nuclear localization signal for R-GECO) and another site XhoI after the stop codon. These PCR products were subcloned into lentiviral vector that was prepared from LV-SD-Cre (Addgene, #12105, no longer available currently) digested with EcoRI and XhoI. XL-10 Gold competent cells (Agilent) transformed with these LV-SD vectors were inoculated at 24-30° C. The purified LV-SD vectors were transfected together with pCMV-dR8.2 dvpr and pCMV-VSV-G (Addgene #8455 & 8454) as follow: HEK293T cells that were plated at 5×10^5 cell/ml (2 ml per well) one day before were transfected with total 3.4 μg per well (ratio, LV-SD:dR8.2:VSV-G=8:8:1) and LF-2K (8.0 μl per well) in a 6-well plate. The next day the media was changed. Two days after transfection, culture media was harvested (again fresh media was added to transfected HEK 293T cells) and filtered using 0.45 μm PES filter (VWR) and then directly added to wells containing monolayer cardiomyocytes (at 2-3 weeks after inducing cardiac differentiation). No polybrene was used for viral infection. Seventy-two hours after transfection, the culture media was again collected and used as secondary infection. The next day media was changed to DF5 media for infected cardiomyocytes. In case of serum-free condition, Lenti-X concentrator (TaKaRa/Clontech) was used for media change, following the manufacture's instruction. Three to five days after the secondary infection, monolayer cardiomyocytes were transferred to 35 mm glass bottom culture dishes (7 mm diameter, No. 1.5 glass) coated with Geltrex. Nikon Ti-U epi-fluorescent microscope connected to EMCDD Digital Monochrome camera (Evolve, EVO-512-M-FW-16-AC, 512×512, Photometrics) was used with LED light source (Lumencore Spectra X 6 line LED system, with Chroma excitation mounted filters, ET395/25x, ET470/30, ET550/15x, ET640/30x;) with dichroic mirror and emission filter (dichroic mirror, D/F/Cy3/Cy5pc; emission, ET430/36 513/44 595/41 719/105) operated by MetaFlour (Molecular Devices, acquisition: exposure time, 20 ms; gain 3 (6×); transfer speed, 5 MHz, Image size: 512×512; binning, 1.0). Temperature of the bath solution was maintained at approximately 35° C. using a digital temperature controller (TC-344B, Warner Instruments) for the duration of the experiment. Nikon objective lens 40× (CF1 S Fluor, NA 0.90) for cell clusters and 60× (CFI Plan Apo Lambda H, NA 1.40) for single cells were used to capture two fluorescent signals as R-GECO1 (illumination control. 10 in 0-255, cy3) and ArcLight (150 in 0-255, FITC, 4 or 8 frames per sec). Isoproterenol (10 μM, Sigma Aldrich) and R-roscovitine (0.5 and 5 μM) were used for fluorescent imaging. The effect of serum concentration on the imaging using ArcLight and R-GECO1 in control and patient cells was not observed at approximately 35° C. […] Daily imaging in cardiomyocytes infected at day 15 was conducted for 18 days (day 23-40). Additional recordings were performed at day 90 to examine low long ArcLight and R-GECO1 signals are available.
A dual optical imaging system using two genetically encoded indicators, ArcLight for voltage and R-GECO1 for calcium transients, has been developed to efficiently phenotype the patient specific iPSC-derived cardiomyocytes derived from the serum containing protocol (Song, et al. Stem Cells Transl Med. 4(5):468-75 (2015)). […] Those phenotypes of Timothy syndrome patient iPSCs derived cardiomyocytes can be rescued by 5 μM Roscovitine treatment (FIGS. 2B-2C and FIG. 5).

In test [1] the test system is control (Ctrl) cardiomyocytes. Briefly: Dual optical recording of action potentials (ArcLight) and calcium handling (R-GECO1) in control iPSC-derived cardiomyocytes. Type of test: cell-based, human. To be noted: 5 μM, 10 min. Here is the method: Plasmids of R-GECO1 (Addgene #32462) (Zhao et al., 2011) and ArcLight (Addgene #36857) (Jin et al., 2012) were used as template to amplify the cDNA using Phusion polymerase (Thermo Scientific) with primer sets that allowed us to add restriction enzyme site EcoRI and Kozak sequence before the start codon (without nuclear localization signal for R-GECO) and another site XhoI after the stop codon. These PCR products were subcloned into lentiviral vector that was prepared from LV-SD-Cre (Addgene, #12105, no longer available currently) digested with EcoRI and XhoI. XL-10 Gold competent cells (Agilent) transformed with these LV-SD vectors were inoculated at 24-30° C. The purified LV-SD vectors were transfected together with pCMV-dR8.2 dvpr and pCMV-VSV-G (Addgene #8455 & 8454) as follow: HEK293T cells that were plated at 5×10^5 cell/ml (2 ml per well) one day before were transfected with total 3.4 μg per well (ratio, LV-SD:dR8.2:VSV-G=8:8:1) and LF-2K (8.0 μl per well) in a 6-well plate. The next day the media was changed. Two days after transfection, culture media was harvested (again fresh media was added to transfected HEK 293T cells) and filtered using 0.45 μm PES filter (VWR) and then directly added to wells containing monolayer cardiomyocytes (at 2-3 weeks after inducing cardiac differentiation). No polybrene was used for viral infection. […]

Where [2] appears, read: monolayer of LQTS cardiomyocytes, serum-containing protocol (FIG. 5D).

Turning to `O=C1Nc2cc(Br)ccc2/C1=C1/Nc2ccccc2/C1=N\O` [BIO, (2′ Z,3′ £)-6-Bromoindirubin-3′-oxime], the beating cells result in the test on human iPSC lines (BIO 1 μM) was “provided beating cardiomyocytes and Yes”; in the test on human iPSC lines (BIO 2 μM), “Yes”; with human iPSC lines (BIO 4 μM), “No”; with human iPSC lines (BIO 8 μM) it was “No”. Also, the “beating cells, where in the well” value in the test with human iPSC lines (BIO 2 μM) is “only around the edge of well”.

`Cc1c[nH]c(-c2cnc(NCCNc3ccc(C#N)cn3)nc2-c2ccc(Cl)cc2Cl)n1` [CHIR]: the beating cells result with human iPSC lines (CHIR 5 μM) is “provided beating cardiomyocytes and Yes”; in the test with human iPSC lines (CHIR 10 μM), “No”; in the test on human iPSC lines (CHIR 15 μM), “No”; in the test with human iPSC lines (CHIR 20 μM), “No”. The “beating cells, where in the well” value in the test with human iPSC lines (CHIR 5 μM) is recorded as “only around the center of well”.

Take `CC[C@H](CO)Nc1nc(NCc2ccccc2)c2ncn(C(C)C)c2n1` [Roscovitine]: the “phenotypes in action potentials, channel inactivation and calcium handling in Timothy syndrome cardiomyocytes” value with LQTS cardiomyocytes is “rescued the phenotypes”. Also, the APD90 entry with LQTS cardiomyocytes (5 μM, 10 min, LQTS cardiomyocytes, serum-free condition (FIG. 5H)) is “positive effects”; in test [1] (serum-free protocol (FIG. 5F)), “no effect”. The “number of spontaneous calcium transients” value is “positive effects” with LQTS cardiomyocytes (5 μM, 10 min, LQTS cardiomyocytes, serum-free condition (FIG. 5I)); “increased” in the test on LQTS cardiomyocytes (setting [2]); “no effect” in test [1] (serum-free protocol (FIG. 5G)). Besides, the “phenotypes of Timothy syndrome cardiomyocytes” value in the test with LQTS cardiomyocytes (5 μM, cardiomyocytes derived using the serum-free protocol) was “rescued the phenotypes”. Further, the “phenotypes (prolonged action potentials and abnormal calcium handling) of Timothy syndrome cardiomyocytes” value in the test on LQTS cardiomyocytes (5 μM, cardiomyocytes from the serum-containing protocol) is “rescued”. The “irregular calcium handling and electrical activities” value in the test with LQTS cardiomyocytes (5 μM, single LQTS CMs, before, during and after treatment (FIG. 2B)) is recorded as “prevented”. The “action potential (APD90, 90% from peak)” value with LQTS cardiomyocytes (monolayer of LQTS cardiomyocytes, serum-containing protocol (FIG. 5C)) was “shortened”. In addition, the beating rate result in the test with LQTS cardiomyocytes (setting [2]) was “increased”. Besides, the prolonged action potentials entry in the test with LQTS cardiomyocytes (single LQTS cardiomyocytes, n=12, 4 lines from two patients (FIG. 2C)) is reported as “rescued”.
